Test results from US20090123581A1, “COLLAGEN CROSS-LINKING AGENTS ON DENTAL RESTORATIVE TREATMENT AND PREVENTIVE DENTISTRY” (THE BOARD OF TRUSTEES OF THE UNIVERSITY OF ILLINOIS, priority 2006, published 2009).

Assay: Modulus of elasticity of demineralized dentin, 3-point bend method (Example 3)
Parameters: species or system human
Conditions: for modulus of elasticity, pooled data: pooled over all times (baseline to 4 h)
Text: Twelve sound extracted human molars were used. The teeth were thawed, cleaned of adhering soft tissues, and the occlusal surfaces were ground flat with #320 grit silicon carbide abrasive paper under running water to remove part of the enamel (Buehler, Lake Bluff, Ill.). Flattening of the occlusal surface by cusp removal enables more accurate sectioning of samples. The root portion was sectioned 1 mm below the CEJ and discarded. Teeth were sectioned into 0.5±0.1 mm thick beams (n=5 beams per tooth) in the mesio-buccal direction with a slow speed diamond wafering blade (Buehler-Series 15LC Diamond) under constant water irrigation (FIG. 1A). The sections were further trimmed using a cylindrical diamond bur (#557D, Brasseler, Savannah, Ga.) in a high speed handpiece, to a final rectangular dimension of 0.5 mm thickness×1.7 mm width×7.0 mm length. A dimple was made at one end of the surfaces to allow for repeated measurements to be performed on the same surface (FIG. 1A).
Specimens were immersed in 10% phosphoric acid solution (LabChem Inc, Pittsburgh, Pa.) for a period of 5 hours and thoroughly rinsed with distilled water for 10 minutes. X-rays were taken of the specimens to verify complete tissue demineralization. Demineralized specimens were randomly divided into the following groups according to dentin treatment (FIG. 1B): 2.5% glutaraldehyde (Fisher Biotech, Fair Lawn, N.J.) in PBS (pH: 7.4); 5% glutaraldehyde in PBS (pH: 7.4); 25% glutaraldehyde in PBS (pH: 7.4); 0.65% grape seed extract (Mega-Natural—Polyphenolics Ind., Madera, Calif.) in PBS (pH: 7.4); and 6.5% grape seed extract in PBS solution (pH: 7.4). Specimens were immersed in water for baseline measurements and then in their respective solutions for 10 min, 30 min, 1 hour, 2 hour and 4 hours of cumulative exposure (FIG. 1C).
The 3-point bend method was selected for evaluation of the modulus of elasticity. The advantages of this method are that it requires no gripping of these small specimens and that it is non-destructive and therefore permits repeated measurements to be performed (FIG. 1C). An aluminum alloy fixture with a 5.0 mm span between supports was glued to the bottom of a glass Petri dish. Specimens were tested in compression while immersed in liquid using a Vitrodyne testing machine (Model V-1000, Chatillon, Greensboro, N.C.) with a 50 grams load cell at crosshead speed of 0.5 mm/min. Load-displacement curves were converted to stress-strain curves and the apparent modulus of elasticity calculated at 3% strain. Displacement (D) during compression was calculated at a maximum strain of 3% using the following formula (Nielsen L E. Mechanical properties of polymers and composites. Vol. 1, New York: Marcel Dekker Inc., 1974, p. 45.):
Where ε is strain, L is support span and T is thickness of the specimen.
Then the modulus of elasticity (É) of the specimens was calculated using the following formula (Nielsen, 1974): […]
Where P is the maximum load, L is the support span, D is the displacement, b width of the specimen and T is the thickness of the specimen.
Baseline measurements were obtained with specimens immersed in distilled water. All experimental periods were evaluated with the samples immersed in their respective cross-linking agents. A total of 10-12 specimens were evaluated per group. The data were collected and statistically analyzed using a General Linear Model SPSS program for ANOVA repeated measurements at a 95% confidence interval.

Compound O=CCCCC=O [GD, glutaraldehyde] has a modulus of elasticity (2.5% GD group, Baseline (in distilled water, before exposure)) of 4.82 MPa, a modulus of elasticity (2.5% GD in PBS pH 7.4, 10 min cumulative exposure) of 20.45 MPa and a modulus of elasticity (2.5% GD in PBS pH 7.4, 30 min cumulative exposure) of 30.22 MPa. The modulus of elasticity (2.5% GD in PBS pH 7.4, 1 h cumulative exposure) was 32.10 MPa, the modulus of elasticity (2.5% GD in PBS pH 7.4, 2 h cumulative exposure) was 34.44 MPa and the modulus of elasticity (2.5% GD in PBS pH 7.4, 4 h cumulative exposure) was 34.86 MPa. The “modulus of elasticity, pooled data” value (2.5% GD) was 26.15 A MPa, the modulus of elasticity (5% GD group, Baseline (in distilled water, before exposure)) was 5.97 MPa and the modulus of elasticity (5% GD in PBS pH 7.4, 10 min cumulative exposure) was 18.37 MPa. It also gave a modulus of elasticity (5% GD in PBS pH 7.4, 30 min cumulative exposure) of 27.25 MPa, a modulus of elasticity (5% GD in PBS pH 7.4, 1 h cumulative exposure) of 29.77 MPa and a modulus of elasticity (5% GD in PBS pH 7.4, 2 h cumulative exposure) of 33.08 MPa. For the same compound, the modulus of elasticity (5% GD in PBS pH 7.4, 4 h cumulative exposure) was 38.14 MPa, the “modulus of elasticity, pooled data” value (5% GD) was 25.43 A MPa and the modulus of elasticity (25% GD group, Baseline (in distilled water, before exposure)) was 5.32 MPa. For the same compound, the modulus of elasticity (25% GD in PBS pH 7.4, 10 min cumulative exposure) was 32.26 MPa, the modulus of elasticity (25% GD in PBS pH 7.4, 30 min cumulative exposure) was 37.83 MPa and the modulus of elasticity (25% GD in PBS pH 7.4, 1 h cumulative exposure) was 41.31 MPa. For the same compound, the modulus of elasticity (25% GD in PBS pH 7.4, 2 h cumulative exposure) was 41.21 MPa, the modulus of elasticity (25% GD in PBS pH 7.4, 4 h cumulative exposure) was 42.80 MPa and the “modulus of elasticity, pooled data” value (25% GD) was 33.45 B MPa.
